# Biological target: ROCK2 (Homo sapiens, UniProt O75116)
# Assay: ROCK kinase inhibition assay, FITC peptide substrate, LABCHIP 3000 readout
# Assay type: biochemical
# Settings: 5 μM ATP, 1.5 μM peptide substrate
# Summary of the method: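 Rho kinase variants started the reaction with compound present (DMSO <2%); after incubation, EDTA stop, and phosphorylated and non-phosphorylated peptide separated by microfluidic electrophoresis. Dose-response format, inhibition calculated at each concentration.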
# Sequence of ROCK2 (O75116 whole entry, species assumed): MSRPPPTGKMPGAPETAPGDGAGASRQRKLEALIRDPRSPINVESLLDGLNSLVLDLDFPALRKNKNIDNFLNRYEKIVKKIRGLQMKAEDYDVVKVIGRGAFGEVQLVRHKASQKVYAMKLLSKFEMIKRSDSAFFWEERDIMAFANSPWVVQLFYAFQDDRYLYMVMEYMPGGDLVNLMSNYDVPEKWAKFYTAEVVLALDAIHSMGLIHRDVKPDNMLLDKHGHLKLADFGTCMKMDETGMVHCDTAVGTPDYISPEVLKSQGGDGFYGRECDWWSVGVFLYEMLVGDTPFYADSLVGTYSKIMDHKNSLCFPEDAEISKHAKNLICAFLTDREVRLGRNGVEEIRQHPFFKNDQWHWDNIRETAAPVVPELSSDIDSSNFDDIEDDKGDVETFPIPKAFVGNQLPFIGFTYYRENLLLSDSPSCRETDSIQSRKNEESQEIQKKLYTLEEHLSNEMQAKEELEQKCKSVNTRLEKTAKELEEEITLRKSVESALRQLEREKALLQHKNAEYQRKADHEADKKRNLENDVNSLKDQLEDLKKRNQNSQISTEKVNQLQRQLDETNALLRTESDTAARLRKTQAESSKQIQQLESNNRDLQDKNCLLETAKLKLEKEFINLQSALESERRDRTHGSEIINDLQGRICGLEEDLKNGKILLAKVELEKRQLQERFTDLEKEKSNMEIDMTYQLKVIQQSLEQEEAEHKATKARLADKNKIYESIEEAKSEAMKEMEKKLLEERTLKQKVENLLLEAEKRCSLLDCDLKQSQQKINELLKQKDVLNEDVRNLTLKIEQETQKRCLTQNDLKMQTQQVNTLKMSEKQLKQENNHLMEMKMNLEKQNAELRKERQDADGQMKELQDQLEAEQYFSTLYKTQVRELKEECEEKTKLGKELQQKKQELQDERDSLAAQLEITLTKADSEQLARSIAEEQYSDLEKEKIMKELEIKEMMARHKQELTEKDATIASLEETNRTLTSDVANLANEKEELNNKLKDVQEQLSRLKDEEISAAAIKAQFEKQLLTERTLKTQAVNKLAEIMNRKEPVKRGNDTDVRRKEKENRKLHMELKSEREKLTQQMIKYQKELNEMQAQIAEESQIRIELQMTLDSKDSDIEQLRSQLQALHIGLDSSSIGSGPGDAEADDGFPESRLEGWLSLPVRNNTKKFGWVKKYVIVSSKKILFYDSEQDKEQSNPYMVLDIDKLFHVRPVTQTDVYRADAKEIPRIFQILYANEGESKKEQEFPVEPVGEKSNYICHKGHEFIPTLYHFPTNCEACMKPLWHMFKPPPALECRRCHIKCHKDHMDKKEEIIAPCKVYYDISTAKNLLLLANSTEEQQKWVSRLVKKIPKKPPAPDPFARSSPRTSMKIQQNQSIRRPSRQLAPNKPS
row,Structure (SMILES),IC50 [nM]
1,"COc1ccc2cc(C(=O)N3CCC4(CC3)CCN(c3ccc(-c5cn[nH]c5)c(OC)c3)C4=O)ccc2c1 [Example 176, 2-[3-methoxy-4-(1H-pyrazol-4-yl)phenyl]-8-(6-methoxynaphthalene-2-carbonyl)-2,8-diazaspiro[4.5]decan-1-one]",20
2,COc1cc2cc(C(=O)N3CCC4(CC3)CCN(c3ccc(-c5cn[nH]c5)c(OC)c3)C4=O)n(C)c2cc1OC [Example 178],14
3,"COc1cc(N2CCC3(CCN(C(=O)c4ccc5c(c4)nc(C)n5C)CC3)C2=O)ccc1-c1cn[nH]c1 [Example 179, 8-(1,2-dimethyl-1H-1,3-benzodiazole-5-carbonyl)-2-[3-methoxy-4-(1H-pyrazol-4-yl)phenyl]-2,8-diazaspiro[4.5]decan-1-one]",2.3
4,"COc1cc(N2CCC3(CCN(C(=O)c4ccc(CN5CCOCC5)cc4)CC3)C2=O)ccc1-c1cn[nH]c1 [Example 180, 2-[3-methoxy-4-(1H-pyrazol-4-yl)phenyl]-8-{4-[(morpholin-4-yl)methyl]benzoyl}-2,8-diazaspiro[4.5]decan-1-one]",27
5,"COc1cc(N2CCC3(CCN(C(=O)c4ccc(Cn5ccnc5)cc4)CC3)C2=O)ccc1-c1cn[nH]c1 [Example 183, 8-{4-[(1H-imidazol-1-yl)methyl]benzoyl}-2-[3-methoxy-4-(1H-pyrazol-4-yl)phenyl]-2,8-diazaspiro[4.5]decan-1-one]",23
6,"COc1ccc(C(=O)N2CCC3(CC2)CCN(c2ccc(-c4cn[nH]c4)c(OC)c2)C3=O)c(OCc2ccccc2)c1 [Example 184, 8-[2-(benzyloxy)-4-methoxybenzoyl]-2-[3-methoxy-4-(1H-pyrazol-4-yl)phenyl]-2,8-diazaspiro[4.5]decan-1-one]",12
7,"COc1cc(N2CCC3(CCN(C(=O)c4cc(C)n(C)n4)CC3)C2=O)ccc1-c1cn[nH]c1 [Example 188, 8-(1,5-dimethyl-1H-pyrazole-3-carbonyl)-2-[3-methoxy-4-(1H-pyrazol-4-yl)phenyl]-2,8-diazaspiro[4.5]decan-1-one]",31
8,COc1cc(N2CCC3(CCN(C(=O)c4ccc(N5CCCC5)cc4)CC3)C2=O)ccc1-c1cn[nH]c1 [Example 191],4
9,"CCN(CC)c1ccc(C(=O)N2CCC3(CC2)CCN(c2ccc(-c4cn[nH]c4)c(OC)c2)C3=O)cc1 [Example 194, 8-[4-(diethylamino)benzoyl]-2-[3-methoxy-4-(1H-pyrazol-4-yl)phenyl]-2,8-diazaspiro[4.5]decan-1-one]",5.2
10,"COc1cc(N2CCC3(CCN(C(=O)c4ccc5c(c4)nnn5C)CC3)C2=O)ccc1-c1cn[nH]c1 [Example 196, 2-[3-methoxy-4-(1H-pyrazol-4-yl)phenyl]-8-(1-methyl-1H-1,2,3-benzotriazole-5-carbonyl)-2,8-diazaspiro[4.5]decan-1-one]",9.1
11,"COc1cc(N2CCC3(CCN(C(=O)c4cnn5cccnc45)CC3)C2=O)ccc1-c1cn[nH]c1 [Example 198, 2-[3-methoxy-4-(1H-pyrazol-4-yl)phenyl]-8-{pyrazolo[1,5-a]pyrimidine-3-carbonyl}-2,8-diazaspiro[4.5]decan-1-one]",1060
12,"COc1cc(N2CCC3(CCN(C(=O)c4cc(C(C)C)n5ncnc(O)c45)CC3)C2=O)ccc1-c1cn[nH]c1 [Example 200, 8-[4-hydroxy-7-(propan-2-yl)pyrrolo[2,1-f][1,2,4]triazine-5-carbonyl]-2-[3-methoxy-4-(1H-pyrazol-4-yl)phenyl]-2,8-diazaspiro[4.5]decan-1-one]",2.1
13,"COc1cc(N2CCC3(CCN(C(=O)c4c[nH]c5ccc(C#N)cc45)CC3)C2=O)ccc1-c1cn[nH]c1 [Example 201, 3-{2-[3-methoxy-4-(1H-pyrazol-4-yl)phenyl]-1-oxo-2,8-diazaspiro[4.5]decane-8-carbonyl}-1H-indole-5-carbonitrile]",718
14,"COc1cc(N2CCC3(CCN(C(=O)c4ccn5nc[nH]c(=O)c45)CC3)C2=O)ccc1-c1cn[nH]c1 [Example 202, 2-[3-methoxy-4-(1H-pyrazol-4-yl)phenyl]-8-{4-oxo-3H,4H-pyrrolo[2,1-f][1,2,4]triazine-5-carbonyl}-2,8-diazaspiro[4.5]decan-1-one]",5.4
15,"COc1cc(N2CCC3(CCN(C(=O)c4cccc5ccncc45)CC3)C2=O)ccc1-c1cn[nH]c1 [Example 203, 8-(isoquinoline-8-carbonyl)-2-[3-methoxy-4-(1H-pyrazol-4-yl)phenyl]-2,8-diazaspiro[4.5]decan-1-one]",326
16,"COc1cccc(S(=O)(=O)N2CCC3(CCN(c4ccc(-c5cn[nH]c5)c(OC)c4)C3=O)CC2)c1 [Example 207, 2-[3-methoxy-4-(1H-pyrazol-4-yl)phenyl]-8-(3-methoxybenzenesulfonyl)-2,8-diazaspiro[4.5]decan-1-one]",266
17,"COC(=O)c1ccc(S(=O)(=O)N2CCC3(CCN(c4ccc(-c5cn[nH]c5)c(OC)c4)C3=O)CC2)o1 [Example 208, methyl 5-({2-[3-methoxy-4-(1H-pyrazol-4-yl)phenyl]-1-oxo-2,8-diazaspiro[4.5]decan-8-yl}sulfonyl)furan-2-carboxylate]",2070

# Other lines, results leading:
row,IC50 [nM],Structure (SMILES)
1,195,"COc1cc(N2CCC3(CCN(C(=O)C4CCN(c5ccncc5)CC4)CC3)C2=O)ccc1-c1cn[nH]c1 [Example 175, 2-[3-methoxy-4-(1H-pyrazol-4-yl)phenyl]-8-[1-(pyridin-4-yl)piperidine-4-carbonyl]-2,8-diazaspiro[4.5]decan-1-one]"
2,78,"COc1cc(N2CCC3(CCN(C(=O)c4ccc5c(c4)CC(=O)N5)CC3)C2=O)ccc1-c1cn[nH]c1 [Example 177, 2-[3-methoxy-4-(1H-pyrazol-4-yl)phenyl]-8-(2-oxo-2,3-dihydro-1H-indole-5-carbonyl)-2,8-diazaspiro[4.5]decan-1-one]"
3,35,"COc1cc(N2CCC3(CCN(C(=O)c4ccc(C(N)=O)cc4)CC3)C2=O)ccc1-c1cn[nH]c1 [Example 181, 4-{2-[3-methoxy-4-(1H-pyrazol-4-yl)phenyl]-1-oxo-2,8-diazaspiro[4.5]decane-8-carbonyl}benzamide]"
4,16,"COc1cc(N2CCC3(CCN(C(=O)c4ccc5nc(-c6ccncc6)[nH]c5c4)CC3)C2=O)ccc1-c1cn[nH]c1 [Example 182, 2-[3-methoxy-4-(1H-pyrazol-4-yl)phenyl]-8-[2-(pyridin-4-yl)-1H-1,3-benzodiazole-6-carbonyl]-2,8-diazaspiro[4.5]decan-1-one]"
5,37,"COc1cc(N2CCC3(CCN(C(=O)c4ccc(-c5nc(C)no5)cc4)CC3)C2=O)ccc1-c1cn[nH]c1 [Example 185, 2-[3-methoxy-4-(1H-pyrazol-4-yl)phenyl]-8-[4-(3-methyl-1,2,4-oxadiazol-5-yl)benzoyl]-2,8-diazaspiro[4.5]decan-1-one]"
6,1.2,"COc1cc(N2CCC3(CCN(C(=O)c4ccc(N5CCN(Cc6cccc(Cl)c6)CC5)cc4)CC3)C2=O)ccc1-c1cn[nH]c1 [Example 186, 8-(4-{4-[(3-chlorophenyl)methyl]piperazin-1-yl}benzoyl)-2-[3-methoxy-4-(1H-pyrazol-4-yl)phenyl]-2,8-diazaspiro[4.5]decan-1-one]"
7,27,"COc1cc(N2CCC3(CCN(C(=O)c4cc(C)[nH]n4)CC3)C2=O)ccc1-c1cn[nH]c1 [Example 187, 2-[3-methoxy-4-(1H-pyrazol-4-yl)phenyl]-8-(5-methyl-1H-pyrazole-3-carbonyl)-2,8-diazaspiro[4.5]decan-1-one]"
8,38,"COc1cc(N2CCC3(CCN(C(=O)c4ccc(N)cc4Cl)CC3)C2=O)ccc1-c1cn[nH]c1 [Example 189, 8-(4-amino-2-chlorobenzol)-2-[3-methoxy-4-(1H-pyrazol-4-yl)phenyl]-2,8-diazaspiro[4.5]decan-1-one]"
9,3.3,"COc1cc(N2CCC3(CCN(C(=O)c4ccc(N5CCCCS5(=O)=O)cc4)CC3)C2=O)ccc1-c1cn[nH]c1 [Example 192, 8-(4-(1,1-dioxido-1,2-thiazinan-2-yl)benzoyl)-2-(3-methoxy-4-(1H-pyrazol-4-yl)phenyl)-2,8-diazaspiro[4.5]decan-1-one]"
10,12,"COc1cc(N2CCC3(CCN(C(=O)c4ccc(-n5cccc5)cc4)CC3)C2=O)ccc1-c1cn[nH]c1 [Example 193, 2-[3-methoxy-4-(1H-pyrazol-4-yl)phenyl]-8-[4-(1H-pyrrol-1-yl)benzoyl]-2,8-diazaspiro[4.5]decan-1-one]"
11,33,"COc1cc(N2CCC3(CCN(C(=O)c4ccc(Br)cc4)CC3)C2=O)ccc1-c1cn[nH]c1 [Example 195, 8-(4-bromobenzoyl)-2-[3-methoxy-4-(1H-pyrazol-4-yl)phenyl]-2,8-diazaspiro[4.5]decan-1-one]"
12,61,"COc1cc(N2CCC3(CCN(C(=O)c4cccc5[nH]cnc45)CC3)C2=O)ccc1-c1cn[nH]c1 [Example 197, 8-(1H-1,3-benzodiazole-4-carbonyl)-2-[3-methoxy-4-(1H-pyrazol-4-yl)phenyl]-2,8-diazaspiro[4.5]decan-1-one]"
13,186,"COc1ccc2c(OC)ccc(C(=O)N3CCC4(CC3)CCN(c3ccc(-c5cn[nH]c5)c(OC)c3)C4=O)c2c1 [Example 199, 8-(4,7-dimethoxynaphthalene-1-carbonyl)-2-[3-methoxy-4-(1H-pyrazol-4-yl)phenyl]-2,8-diazaspiro[4.5]decan-1-one]"
14,50,"COCCN1Cc2cccc(C(=O)N3CCC4(CC3)CCN(c3ccc(-c5cn[nH]c5)c(OC)c3)C4=O)c2C1=O [Example 204, 2-[3-methoxy-4-(1H-pyrazol-4-yl)phenyl]-8-[2-(2-methoxyethyl)-3-oxo-2,3-dihydro-1H-isoindole-4-carbonyl]-2,8-diazaspiro[4.5]decan-1-one]"
15,8.9,"COc1cc(N2CCC3(CCN(C(=O)c4ccc(N5CCN(C(=O)OC(C)(C)C)CC5)cc4)CC3)C2=O)ccc1-c1cn[nH]c1 [Example 205, tert-butyl 4-(4-{2-[3-methoxy-4-(1H-pyrazol-4-yl)phenyl]-1-oxo-2,8-diazaspiro[4.5]decane-8-carbonyl}phenyl)piperazine-1-carboxylate]"
16,497,"COc1ccc(S(=O)(=O)N2CCC3(CCN(c4ccc(-c5cn[nH]c5)c(OC)c4)C3=O)CC2)cc1 [Example 206, 2-[3-methoxy-4-(1H-pyrazol-4-yl)phenyl]-8-(4-methoxybenzenesulfonyl)-2,8-diazaspiro[4.5]decan-1-one]"

# Source: patent publication US11192891B2, “Diazaspiro ROCK inhibitors” (BRISTOL-MYERS SQUIBB COMPANY, priority 2017, dated 2021)
